# Counter-ions that a name gives are not always drawn.
# Experiments:
# [1] = test system: xenograft B16 mouse tumor; conditions: CTX 20 mg/kg/d i.p., 15 days
# Description: The B16 mouse melanoma cells at exponential growth phase were suspended in PBS. […] Adjusted the suspension to a cell concentration of approximately 1×10^7/ml. 0.2 ml of the suspension were transplanted subcutaneously into right axillary subcutis for passaging.
# Under sterile condition the xenograft B16 mouse tumor in mice was stripped from axillary subcutis. After cutting by scissors, the tumor with saline (1:3) was ground in a glass homogenizer. Monocell suspension was made with saline. […] Then adjusted the suspension to a cell density of approximately 1×10^7/ml with saline. 0.2 ml were transplanted subcutaneously into right axillary subcutis of each mouse. After transplanting, randomly divided the mouse into 5 groups, 12 each.
# Tumors were taken out, sizes and weights were measured, and the percent of inhibitions were calculated.
# [2] = test system: non-bacterial prostatitis; test: Therapeutic effects on non-bacterial prostatitis (Xiaozhiling injection into prostate); format: in vivo, SD rats; set-up: Histopathological score of prostatitis, Overall Average X ± SD: scale not given here
# Description: Fifty-five male SD rats were randomly divided into 6 groups, 9 each, except the negative control group for which 10 animals were used. All animals from group 1 to 6 were anesthetized by injection of ketamine under sterile conditions and incised around 1.5 cm with a sterilized surgery scalpel at middle of abdomen. Animals in Group 1 were injected penicillin to prevent infection, and given distill water, 10 ml/kg, once a day, 5 times a week for 5 weeks. Groups from 2 to 6 injected 25% Xiaozhiling into left and right lobes of prostate, 0.1 ml for each lobe and sew the muscle and skin with #1 silk thread. The animals were then given penicillin to prevent infectious. Group 2 was served as negative control group in which animals were treated with distill water by gavage 24 hrs after the Xiaozhiling injection, once a day, 5 times a week for 5 weeks. Group 3 was served as positive control group in which animals were treated with GENURIN by gavage 24 hrs after the Xiaozhiling injection at dose of 60 mg/kg, once a day, 5 times a week (escaping weekend) for 5 weeks. […] On the last dosing day, urine samples from different groups that covered periods of 1, 2 and 3 hrs were collected.
# Twenty-four hrs after the last dose, the animals were euthanized and weighed. Volume and weight of prostate were measured. The averages of the prostate weight/volume and organ coefficient (average weight of prostate/average of body weight) were calculated, and statistical analysis performed (t test).
# (§1) Prostate tissues of animals from different groups were embedded with paraffin. The tissue sections were stained with H&E for histpathological examination by an anatomical pathologist.
# GSTP1 = test: Western blot to detect GSTP1 protein in LNCaP cells; format: cell-based, human; conditions: LNCaP cells exposed 24 hrs
# Description: Western blot to detect GSTP1 protein (FIG. 1): […] The cells were harvested, washed and total cellular proteins were extracted as described previously (Wang, […], et al. […] Cancer Res 61(20): 7544-51, 2001). Fifty μg cellular extracts were separated on a SDS-PAGE, electro-transferred to nitrocellulose filters, and immunoblotted initially with antibodies against GSTP1. The same membranes were stripped and re-probed with β-actin for loading control. The result was recorded by ECL films.
# [3] = test system: human androgen independent prostate cancer PC-3 cells; test: Xenograft of PC-3 in nude mice; format: in vivo, BALB/c nude mice; conditions: for Inhibition of PC-3 tumor growth: at terminal, diet containing 8 μM/g for 30 days
# Excerpt: Immunodeficient BALB/c nude mice, male, 5 weeks old, were purchased from Animal Center, Chinese Academy of Sciences, Shanghai, China. The animals were housed in an SPF animal lab. Human androgen independent prostate cancer PC-3 cells, in the form of a pellet (approximately 1×10^6 cells per animal), were mixed with a 50% volume of Matrigel and implanted s.c. in the flank of the animal. Twenty-four hrs after the transplant, the mice were randomly divided into two groups, eight animal each. One group served as untreated control and fed with regular AIN76 diet, and another one as treatment group in which AIN76 diet containing 8 μM/g of PEITC-NAC was provided. The animals were treated for 30 days, and tumor incidence and size were measured at day 7, 10, 22. Twenty-four hrs after the last administration, animals were euthanized, and body and tumors were weighted. Western blot was used to follow the possible change of AR expression.
# androgen-induced BPH = test: Therapeutic effects on BPH: Test Two (castrated rats, testosterone propionate; weights and histopathology); format: in vivo, SD rats; set-up: Histopathological score of BPH, Average X ± SD: scale not given here
# Description: Thirty-six male SD rats were randomly divided into 4 groups, nine each. Group 1 was served as blank control group (pseudo-surgery control group) in which animals were under the same surgical procedures except no testis was sectioned and fed normally. Groups from 2 to 4 were served as treatment groups in which all animals were anesthetized using ketamine and castrated by removing both testises under sterile conditions. After the surgery, the penicillin was injected to prevent the animals from infection. One week later, the testosterone propionate was injected subcutaneously at dose of 5 mg/kg, once a day for a month. […] Group 3 was served as positive control group in which animals were given Proscar by gavage at dose of 0.1 mg/rat/day for a month beginning on the same day that the testosterone propionate was injected.
# Twenty-four hrs after the last dose, the animals were euthanized and weighed. Volume and weight of prostate were measured. The averages of prostate volume/weight and organ coefficient (average weight of prostate/average of body weight) were calculated, and statistical analysis performed (t test).
# as §1
# BPH = test: Therapeutic effects on BPH: Test One (castrated rats, testosterone propionate); format: in vivo, SD rats; conditions: estradiol 0.1 mg/rat s.c., one month
# Description: Sixty male SD rats were randomly divided into 6 groups, ten each. The animals were anesthetized using ketamine and castrated by removing testis under sterile conditions. After the surgery, the penicillin was injected to prevent the animals from infection. One week later, the testosterone propionate was injected subcutaneously at dose of 1 mg/rat for a month, once a day. Group 1 was served as a negative control group, and the animals of group 1 were given saline orally without any active pharmaceutical ingredient for a month beginning on the same day the testosterone propionate was injected. Group 2 was served as positive control group in which animals were given estradiol subcutaneously at a dose of 0.1 mg/rat for a month beginning on the same day the testosterone propionate was injected. Groups from 3 to 6 was served as drug treatment groups in which animals were given tested articles on the same day the testosterone propionate was injected.
# Twenty-four hrs after the last dosage, the animals were euthanized and weighed. Volume and weight of prostate were measured. The averages of volume/weight and organ coefficient (average weight of prostate/average of body weight) were calculated, and statistical analysis performed (t test).
# [4] = GENURIN 60 mg/kg gavage, 5 weeks
# [5] = GENURIN 60 mg/kg, last dosing day
# [6] = Proscar 0.5 mg/kg gavage, one month
compound,measurement,setting,value
"O=P1(N(CCCl)CCCl)NCCCO1 (centres unmarked) [CTX, Cyclophosphamide, reference compound]",Average of Tumor Weight,[1],0.76 ± 0.41 g
same,Changes in Body Weight,[1],5.07 ± 2.64 g
same,Inhibition,[1],66.23%
"Cc1c(-c2ccccc2)oc2c(C(=O)OCCN3CCCCC3)cccc2c1=O [GENURIN, Flavoxate Hydrochloride, reference compound]",Average Volume of Prostate,[2]; [4],0.69 ± 0.10 cm^3
same,Average Weight of Prostate,[2]; [4],0.71 ± 0.09 g
same,Inhibition of Organ-coefficient,[2]; [4],24.62%
same,Organ Coefficient,[2]; [4],0.196 ± 0.03 %
same,Bleeding: no. of animals with score 0,"[2]; GENURIN 60 mg/kg, 9 animals",6
same,Bleeding: no. of animals with score +,"[2]; GENURIN 60 mg/kg, 9 animals",3
same,Bleeding: no. of animals with score ++,"[2]; GENURIN 60 mg/kg, 9 animals",0
same,Bleeding: no. of animals with score +++,"[2]; GENURIN 60 mg/kg, 9 animals",0
same,Chronic Inflammatory Infiltration: no. of animals with score 0,"[2]; GENURIN 60 mg/kg, 9 animals",5
same,Chronic Inflammatory Infiltration: no. of animals with score +,"[2]; GENURIN 60 mg/kg, 9 animals",4
same,Chronic Inflammatory Infiltration: no. of animals with score ++,"[2]; GENURIN 60 mg/kg, 9 animals",0
same,Chronic Inflammatory Infiltration: no. of animals with score +++,"[2]; GENURIN 60 mg/kg, 9 animals",0
same,Congestion: no. of animals with score 0,"[2]; GENURIN 60 mg/kg, 9 animals",4
same,Congestion: no. of animals with score +,"[2]; GENURIN 60 mg/kg, 9 animals",5
same,Congestion: no. of animals with score ++,"[2]; GENURIN 60 mg/kg, 9 animals",0
same,Congestion: no. of animals with score +++,"[2]; GENURIN 60 mg/kg, 9 animals",0
same,Edema: no. of animals with score 0,"[2]; GENURIN 60 mg/kg, 9 animals",6
same,Edema: no. of animals with score +,"[2]; GENURIN 60 mg/kg, 9 animals",2
same,Edema: no. of animals with score ++,"[2]; GENURIN 60 mg/kg, 9 animals",1
same,Edema: no. of animals with score +++,"[2]; GENURIN 60 mg/kg, 9 animals",0
same,Fibrous Exudation: no. of animals with score 0,"[2]; GENURIN 60 mg/kg, 9 animals",8
same,Fibrous Exudation: no. of animals with score +,"[2]; GENURIN 60 mg/kg, 9 animals",1
same,Fibrous Exudation: no. of animals with score ++,"[2]; GENURIN 60 mg/kg, 9 animals",0
same,Fibrous Exudation: no. of animals with score +++,"[2]; GENURIN 60 mg/kg, 9 animals",0
same,"Histopathological score of prostatitis, Overall Average X ± SD","[2]; GENURIN 60 mg/kg, 9 animals",1.83 ± 0.75
same,Hyperblastosis: no. of animals with score 0,"[2]; GENURIN 60 mg/kg, 9 animals",8
same,Hyperblastosis: no. of animals with score +,"[2]; GENURIN 60 mg/kg, 9 animals",1
same,Hyperblastosis: no. of animals with score ++,"[2]; GENURIN 60 mg/kg, 9 animals",0
same,Hyperblastosis: no. of animals with score +++,"[2]; GENURIN 60 mg/kg, 9 animals",0
same,Inflammatory Infiltration: no. of animals with score 0,"[2]; GENURIN 60 mg/kg, 9 animals",7
same,Inflammatory Infiltration: no. of animals with score +,"[2]; GENURIN 60 mg/kg, 9 animals",2
same,Inflammatory Infiltration: no. of animals with score ++,"[2]; GENURIN 60 mg/kg, 9 animals",0
same,Inflammatory Infiltration: no. of animals with score +++,"[2]; GENURIN 60 mg/kg, 9 animals",0
same,"urine, 1 h Period",[2]; [5],6.2 ± 1.3 mL
same,"urine, 2 h Period",[2]; [5],7.9 ± 1.9 mL
same,"urine, 3 h Period",[2]; [5],8.8 ± 1.2 mL
"CC(=O)NC(CSC(=S)NCCc1ccccc1)C(=O)O (centres unmarked) [PEITC-NAC, N-acetylcysteine conjugate of phenethyl isothiocyanate]",expression of GSTP1 (Western blot),GSTP1,effectively induce
same,Incidence,[3]; at terminal (30 days),87.5%
same,No. of Animals with Tumor,[3]; at terminal (30 days),7
same,No. of Animals without Tumor,[3]; at terminal (30 days),1
same,Inhibition of PC-3 tumor growth,[3],53.3%
same,Incidence,[3]; day 7,75%
same,No. of Animals without Tumor,[3]; day 7,2
same,No. of Animals with Tumor,"[3]; day 7 after tumor implantation, diet containing 8 μM/g, 8 animals",6
same,Incidence,[3]; day 10,75%
same,No. of Animals with Tumor,[3]; day 10,6
same,No. of Animals without Tumor,[3]; day 10,2
same,Incidence,[3]; day 22,87.5%
same,No. of Animals with Tumor,[3]; day 22,7
same,No. of Animals without Tumor,[3]; day 22,1
CC(C)(C)NC(=O)[C@H]1CC[C@H]2[C@@H]3CC[C@H]4NC(=O)C=C[C@]4(C)[C@H]3CC[C@]12C [Proscar],Average Body Weight,"androgen-induced BPH; Proscar 0.5 mg/kg (0.1 mg/rat/day) gavage, one month",340 ± 30.5 g
same,Average Volume of Prostate,androgen-induced BPH; [6],1.61 ± 0.16 cm^3
same,Average Weight of Prostate,androgen-induced BPH; [6],1.30 ± 0.12 g
same,Inhibition of Organ Coefficient,androgen-induced BPH; [6],11.63%
same,Organ Coefficient,androgen-induced BPH; [6],0.38 ± 0.05%
same,Acinar Density: no. of animals with score 0,"androgen-induced BPH; Proscar, 9 animals",1
same,Acinar Density: no. of animals with score +,"androgen-induced BPH; Proscar, 9 animals",2
same,Acinar Density: no. of animals with score ++,"androgen-induced BPH; Proscar, 9 animals",6
same,Acinar Density: no. of animals with score +++,"androgen-induced BPH; Proscar, 9 animals",0
same,"Connective tissue proliferation, or papillary hyperplasia: no. of animals with score 0","androgen-induced BPH; Proscar, 9 animals",8
same,"Connective tissue proliferation, or papillary hyperplasia: no. of animals with score +","androgen-induced BPH; Proscar, 9 animals",1
same,"Connective tissue proliferation, or papillary hyperplasia: no. of animals with score ++","androgen-induced BPH; Proscar, 9 animals",0
same,"Connective tissue proliferation, or papillary hyperplasia: no. of animals with score +++","androgen-induced BPH; Proscar, 9 animals",0
same,Enlargement of Lumen of Gland: no. of animals with score 0,"androgen-induced BPH; Proscar, 9 animals",3
same,Enlargement of Lumen of Gland: no. of animals with score +,"androgen-induced BPH; Proscar, 9 animals",3
same,Enlargement of Lumen of Gland: no. of animals with score ++,"androgen-induced BPH; Proscar, 9 animals",3
same,Enlargement of Lumen of Gland: no. of animals with score +++,"androgen-induced BPH; Proscar, 9 animals",0
same,"Histopathological score of BPH, Average X ± SD","androgen-induced BPH; Proscar, 9 animals",3.33 ± 1.11
same,Secretions of Gland: no. of animals with score 0,"androgen-induced BPH; Proscar, 9 animals",5
same,Secretions of Gland: no. of animals with score +,"androgen-induced BPH; Proscar, 9 animals",2
same,Secretions of Gland: no. of animals with score ++,"androgen-induced BPH; Proscar, 9 animals",2
same,Secretions of Gland: no. of animals with score +++,"androgen-induced BPH; Proscar, 9 animals",0
same,"lumen of prostatic gland and secretary materials in the lumen, versus untreated BPH tissues (typical slide)","androgen-induced BPH; Proscar, FIG. 6.3",reduced
same,"density of prostatic acinars, versus untreated BPH tissues (typical slide)","androgen-induced BPH; Proscar, FIG. 6.4",reduced
"C[C@]12CC[C@@H]3c4ccc(O)cc4CC[C@H]3[C@@H]1CC[C@@H]2O [estradiol, reference compound]",Average Weight of Prostate,BPH,0.73 grams
same,Organ Coefficient,BPH,0.23%
N-acetylcysteine conjugate of phenethyl isothiocyanate [PEITC-NAC],Inhibition of PC-3 tumor growth,[3],53.3%

# Source: US8410170B2, “Use of isothiocyanates compounds in treating prostatic diseases and skin cancer” (Wuxi JC Pharmaceutical Technology Co., Ltd., priority 2005, dated 2013)
